# Data taken from US7262212B2, “2,3-dihydro-6-nitroimidazo[2,1-b]oxazoles” (Otsuka Pharmaceutical Co., Ltd., priority 2002, dated 2007).
row,melting point,SMILES
1,110 to 111 °C,C[C@]1(CN2CCC(N3CCN(C(=O)OCc4ccc(OC(F)(F)F)cc4)CC3)CC2)Cn2cc([N+](=O)[O-])nc2O1
2,167 to 169 °C,C[C@@]1(CN2CCN(C(=O)OCc3ccc(F)cc3)CC2)Cn2cc([N+](=O)[O-])nc2O1
3,230.7 to 233.1 °C,CC1(COc2ccc(N3CCN(c4ccc(C(F)(F)F)cc4)CC3)cc2)Cn2cc([N+](=O)[O-])nc2O1 (centres unmarked)
4,136.8 to 139.9 °C,C[C@]1(CN2CCC(NC(=O)Nc3ccc(C(F)(F)F)cc3)CC2)Cn2cc([N+](=O)[O-])nc2O1
5,105 to 106 °C,C[C@]1(CN2CCN(C3CCN(C(=O)OCc4ccc(OC(F)(F)F)cc4)CC3)CC2)Cn2cc([N+](=O)[O-])nc2O1
6,132 to 133 °C,C[C@]1(CN2CCN(C(=O)OCC=Cc3ccc(C(F)(F)F)cc3)CC2)Cn2cc([N+](=O)[O-])nc2O1
7,159 to 160 °C,CC1(CN2CCN(c3ccc(C(F)(F)F)cc3)CC2)Cn2cc([N+](=O)[O-])nc2O1 (centres unmarked)
8,248 to 252 °C,C[C@]1(CN2CCN(c3ccc(C(=O)O)cc3)CC2)Cn2cc([N+](=O)[O-])nc2O1
9,134.4 to 136.9 °C,C[C@]1(CN2CCC(NC(=O)OC3CCN(c4ccc(C(F)(F)F)cc4)CC3)CC2)Cn2cc([N+](=O)[O-])nc2O1
10,213.5 to 217 °C,C[C@]1(COc2ccc(N3CCN(Cc4ccc(OC(F)(F)F)cc4)CC3)cc2)Cn2cc([N+](=O)[O-])nc2O1
11,192 to 193 °C,C[C@]1(CN2CCN(S(=O)(=O)CCc3ccc(Cl)cc3)CC2)Cn2cc([N+](=O)[O-])nc2O1
12,185 to 187 °C,O=C(Cc1ccc(C(F)(F)F)cc1)N1CCC2(CC1)Cn1cc([N+](=O)[O-])nc1O2
13,216 to 217 °C,CC1(CN2CCN(C(=O)Nc3ccc(C(F)(F)F)cc3)CC2)Cn2cc([N+](=O)[O-])nc2O1 (centres unmarked)
14,135.5 to 137.5 °C,CN(CCN(C)c1ccc(C(F)(F)F)cc1)C[C@@]1(C)Cn2cc([N+](=O)[O-])nc2O1
15,101 to 102 °C,CC(=O)c1ccc(COC(=O)N2CCN(CC3(C)Cn4cc([N+](=O)[O-])nc4O3)CC2)cc1 (centres unmarked)
16,137 to 138 °C,C[C@]1(CN2CCC(N3CCN(C(=O)c4ccc(OC(F)(F)F)cc4)CC3)CC2)Cn2cc([N+](=O)[O-])nc2O1
17,110 to 112 °C,C[C@]1(CN2CCN(Cc3ccc(C(F)(F)F)cc3)CC2)Cn2cc([N+](=O)[O-])nc2O1
18,209 to 211 °C,CC1(CN2CCN(C(=O)COc3ccc(Cl)c(Cl)c3)CC2)Cn2cc([N+](=O)[O-])nc2O1 (centres unmarked)
19,108 to 111 °C,C[C@]1(CN2CCN(C(=O)CCCCc3ccc(Cl)cc3)CC2)Cn2cc([N+](=O)[O-])nc2O1

row,melting point,SMILES
1,146 to 147 °C,C[C@]1(CN2CCN(C(=O)CCCc3ccc(Cl)cc3)CC2)Cn2cc([N+](=O)[O-])nc2O1
2,148.6 to 152.9 °C,C[C@]1(CN2CCC(NCc3ccc(C(F)(F)F)cc3)CC2)Cn2cc([N+](=O)[O-])nc2O1
3,215 to 217 °C,CC1(CN2CCN(S(=O)(=O)Cc3ccc(Cl)cc3)CC2)Cn2cc([N+](=O)[O-])nc2O1 (centres unmarked)
4,141.2 to 144 °C,C[C@]1(CN2CCC(NC(=O)OCc3ccc(C(F)(F)F)cc3)CC2)Cn2cc([N+](=O)[O-])nc2O1
5,169 to 171 °C,C[C@]1(COC(=O)N2CC=C(c3ccc(C(F)(F)F)cc3)CC2)Cn2cc([N+](=O)[O-])nc2O1
6,150 to 151 °C,C[C@]1(CN2CCN(S(=O)(=O)CCCc3ccc(Cl)cc3)CC2)Cn2cc([N+](=O)[O-])nc2O1
7,150 to 155.2 °C,CC1(CN2CCN(C(=O)c3ccc(Cl)cc3)CC2)Cn2cc([N+](=O)[O-])nc2O1 (centres unmarked)
8,141 to 143 °C,O=[N+]([O-])c1cn2c(n1)O[C@H](CN1CCN(Cc3ccc(C(F)(F)F)cc3)CC1)C2
9,130.5 to 132.1 °C,CC1(CN2CCN(C(=O)OCc3ccccc3)CC2)Cn2cc([N+](=O)[O-])nc2O1 (centres unmarked)
10,149 to 150 °C,O=[N+]([O-])c1cn2c(n1)O[C@@H](CN1CCN(Cc3ccc(C(F)(F)F)cc3)CC1)C2
11,121 to 122 °C,Cc1ccc(C(=O)N2CCN(CC3(C)Cn4cc([N+](=O)[O-])nc4O3)CC2)cc1 (centres unmarked)
12,183 to 184 °C,C[C@]1(CN2CCN(C(=O)c3ccc(C(F)(F)F)cc3)CC2)Cn2cc([N+](=O)[O-])nc2O1
13,118 to 120 °C,CSc1ccc(COC(=O)N2CCN(CC3(C)Cn4cc([N+](=O)[O-])nc4O3)CC2)cc1 (centres unmarked)
14,150 to 152.5 °C,C[C@]1(CN2CCN(C(=O)Nc3ccc(C(F)(F)F)cc3)CC2)Cn2cc([N+](=O)[O-])nc2O1
15,88.8 to 91.9 °C,C[C@]1(CN2CCC(OCCCc3ccc(Cl)cc3)CC2)Cn2cc([N+](=O)[O-])nc2O1
16,180.2 to 180.9 °C,CC1(CN2CCN(Cc3ccccc3)C2=O)Cn2cc([N+](=O)[O-])nc2O1 (centres unmarked)
17,167 to 168 °C,COc1ccc(NC(=O)N2CCN(CC3(C)Cn4cc([N+](=O)[O-])nc4O3)CC2)cc1 (centres unmarked)
18,164.6 to 166.5 °C,CC(=NN1CCN(C[C@@]2(C)Cn3cc([N+](=O)[O-])nc3O2)CC1)c1ccc(Cl)cc1
19,148 to 150.5 °C,CN(CCN1CCN(c2ccc(C(F)(F)F)cc2)CC1)C[C@@]1(C)Cn2cc([N+](=O)[O-])nc2O1

# The next lines start with the molecule.
row,SMILES,melting point
1,CN(Cc1ccc(OC(F)(F)F)cc1)C(=O)OC[C@@]1(C)Cn2cc([N+](=O)[O-])nc2O1,123 to 124 °C
2,CCN(CC)C(=O)OC[C@@]1(C)Cn2cc([N+](=O)[O-])nc2O1,196 to 197 °C
3,CC1(Cn2c(=O)n(C3CCN(C(=O)OCc4ccccc4)CC3)c3ccccc32)Cn2cc([N+](=O)[O-])nc2O1 (centres unmarked),181.7 to 184.6 °C
4,CN(C)c1ccc2c(c1)n(CC1(C)Cn3cc([N+](=O)[O-])nc3O1)c(=O)n2C (centres unmarked),264.6 to 268.3 °C (dec.)
5,CC(C)(C)OC(=O)N1CCC2(CC1)Cn1cc([N+](=O)[O-])nc1O2,230 to 232 °C
6,O=[N+]([O-])c1cn2c(n1)O[C@@H](COc1ccc(N3CCC(Oc4ccc(OC(F)(F)F)cc4)CC3)cc1)C2,157 to 160 °C
7,CC(C)(C)OC(=O)c1ccc(NC(=O)N2CCC3(CC2)Cn2cc([N+](=O)[O-])nc2O3)cc1,> 300 °C
8,C[C@]1(COc2ccc(C3=CCN(C(=O)OCc4ccc(OC(F)(F)F)cc4)CC3)cc2)Cn2cc([N+](=O)[O-])nc2O1,174.3 to 174.8 °C
9,CC1(COCc2ccc(Oc3ccc(OC(F)(F)F)cc3)cc2)Cn2cc([N+](=O)[O-])nc2O1 (centres unmarked),107.9 to 109.3 °C
10,O=[N+]([O-])c1cn2c(n1)OC(CN1CCN(Cc3ccc(-c4ccccc4)cc3)CC1)C2 (centres unmarked),183 to 185 °C (dec.)
11,C[C@]1(COc2cccc(N3CCN(C(=O)OCc4ccc(OC(F)(F)F)cc4)CC3)c2)Cn2cc([N+](=O)[O-])nc2O1,136.5 to 138 °C
12,CC1(COC(=O)N2CCCCC2)Cn2cc([N+](=O)[O-])nc2O1 (centres unmarked),152 to 154 °C
13,CC(C)(C)OC(=O)N1CCN(CCCC2(C)Cn3cc([N+](=O)[O-])nc3O2)CC1 (centres unmarked),166 to 167 °C
14,O=C(Nc1ccc(Cl)cc1)N1CCC2(CC1)Cn1cc([N+](=O)[O-])nc1O2,249 to 252 °C (dec.)
15,C[C@]1(CN2CCN(c3nc(-c4ccccc4)cc(-c4ccccc4)n3)CC2)Cn2cc([N+](=O)[O-])nc2O1,201.2 to 205.4 °C
16,C[C@]1(COc2ccc(N3CCN(c4ccc(OC(F)(F)F)cc4)CC3)cc2)Cn2cc([N+](=O)[O-])nc2O1,262.5 to 265 °C
17,CC1(CCN2CCN(c3nc4ccccc4o3)CC2)Cn2cc([N+](=O)[O-])nc2O1 (centres unmarked),187.6 to 189.6 °C
18,CN(CCOc1ccc(Cl)cc1)C[C@@]1(C)Cn2cc([N+](=O)[O-])nc2O1,130.5 to 132 °C
19,C[C@]1(COC(=O)N(c2ccc(Cl)cc2)C2CCCCC2)Cn2cc([N+](=O)[O-])nc2O1,175 to 177 °C
20,CN(C(=O)OC[C@@]1(C)Cn2cc([N+](=O)[O-])nc2O1)c1ccc(Cl)cc1,131 to 133 °C

row,SMILES,melting point
1,CC(C)(C)OC(=O)N1CCN(CCC2(C)Cn3cc([N+](=O)[O-])nc3O2)CC1 (centres unmarked),190 to 191 °C (dec.)
2,CN(Cc1cccc(Cl)c1)C[C@@]1(C)Cn2cc([N+](=O)[O-])nc2O1,177.5 to 178.5 °C
3,C[C@]1(COC(=O)N2CCCc3cc(Cl)ccc32)Cn2cc([N+](=O)[O-])nc2O1,172 to 174 °C
4,CC1(Cn2nc(-c3ccc(Cl)cc3)oc2=O)Cn2cc([N+](=O)[O-])nc2O1 (centres unmarked),221 to 222 °C
5,CN(C)c1ccc(NC(=O)N2CCC3(CC2)Cn2cc([N+](=O)[O-])nc2O3)cc1,244 to 247 °C (dec.)
6,Cn1c(=O)n(CC2(C)Cn3cc([N+](=O)[O-])nc3O2)c2cc(Cl)ccc21 (centres unmarked),261.9 to 265.4 °C (dec.)
7,CC(C)(C)OC(=O)N1CCN(c2ccc(OCC3(C)Cn4cc([N+](=O)[O-])nc4O3)cc2)CC1 (centres unmarked),212 to 214.5 °C
8,O=C(Nc1ccccc1)N1CCC2(CC1)Cn1cc([N+](=O)[O-])nc1O2,229 to 232 °C (dec.)
9,CN(CCN1CCN(C(=O)OC(C)(C)C)CC1)C[C@@]1(C)Cn2cc([N+](=O)[O-])nc2O1,149.5 to 151.8 °C
10,CC1(CNC(=O)OCc2ccc(OC(F)(F)F)cc2)Cn2cc([N+](=O)[O-])nc2O1 (centres unmarked),182.3 to 184.4 °C
11,CC1(Cn2nc(-c3ccc(F)cc3)oc2=O)Cn2cc([N+](=O)[O-])nc2O1 (centres unmarked),188 to 191 °C
12,CC1(Cn2nc(CCc3ccc(Cl)cc3)oc2=O)Cn2cc([N+](=O)[O-])nc2O1 (centres unmarked),139 to 140 °C
13,CC(C)(C)OC(=O)N1CC=C(c2ccc(OC[C@@]3(C)Cn4cc([N+](=O)[O-])nc4O3)cc2)CC1,183 to 189 °C (dec.)
14,CNC(C1CCN(c2ccc(OC(F)(F)F)cc2)CC1)[C@]1(C)Cn2cc([N+](=O)[O-])nc2O1 (some centres unmarked),127.2 to 129.7 °C
15,O=C(NCc1ccccc1)N1CCC2(CC1)Cn1cc([N+](=O)[O-])nc1O2,244 to 247 °C (dec.)
16,C[C@]1(CN2CCC(N3CCCCC3)CC2)Cn2cc([N+](=O)[O-])nc2O1,163.4 to 164.9 °C
17,O=C(Oc1ccccc1)N1CCC2(CC1)Cn1cc([N+](=O)[O-])nc1O2,242 to 244 °C
18,CC(C)(C)OC(=O)N1CCC(c2ccc(OCC3(C)Cn4cc([N+](=O)[O-])nc4O3)cc2)CC1 (centres unmarked),207.8 to 209.1 °C
19,O=[N+]([O-])c1cn2c(n1)OC1(CCN(c3ccc(OC(F)(F)F)cc3)CC1)C2,235.9 to 236.8 °C (dec.)
